Read-outs that look alike come from different tables or passages of the source.
Key:
[1] = test system: MDA-MB-231 breast cancer cells; assay: MTT cytotoxicity assay, MDA-MB-231 cells; format: cell-based, human; conditions: 24 h incubation, MTT, average of at least three experiments (±SD)
Experimental: (§1) The MDA-MB-231 and MCF-7 human breast cancer cells were purchased from ATCC. The MDA-MB-231 and MCF-7 cells were grown in Dulbecco's modified Eagles' medium (DMEM high glucose) (Capricorn Scientific) at 37°C in 5% CO2 supplemented with 10% fetal bovine serum (Capricorn Scientific). HDF cells were purchased from Merck and were grown in the fibroblast growth medium. All cells were adherent in monolayers and, upon confluence, were washed with phosphate buffer saline (PBS) and harvested by digestion with trypsin-EDTA 0.05% (v/v). The cells were suspended and transferred into new, sterile, culture flasks for maintenance or seeded in sterile test microplates for different assays. All cells were manipulated under aseptic conditions in a flow chamber.
(§2) The cells were adherent in monolayers and, upon confluence, were harvested by digestion with trypsin. The cytotoxicity of the complexes against the tumour cells was assessed using the colorimetric assay MTT […], which evaluates the metabolic activity of viable cells. This assay measures the conversion of yellow tetrazolium into purple formazan by an active mitochondrial dehydrogenase in living cells. For this purpose, the cells (10–20 × 10^3 in 200 μL of the medium) were seeded into 96-well plates and incubated in a 5% CO2 incubator at 37°C. The cells were settled for 24 h followed by the addition of a dilution series of the complexes in a medium (200 μL). The complexes were first solubilized in 100% DMSO, given a 10 mM stock solution, and then in a medium within the concentration range of 0.1–100 µM. […] After 24 h of incubation, the treatment solutions were removed by aspiration, and MTT solution (200 μL, 0.5 mg·mL^−1 in PBS) was added to each well. After 3 h at 37°C/5% CO2, the solution was removed, and the purple formazan crystals formed inside the cells were dissolved in DMSO (200 μL) by thorough shaking. The cellular viability was evaluated by measuring the absorbance at 570 nm by using a microplate spectrophotometer. The IC50 values were obtained by dose-response curves using the GraphPad Prism software (vs. 5).
The MDA-MB-231 and MCF-7 human breast cancer cells were purchased from ATCC. MDA-MB-231 and MCF-7 cells were grown in Dulbecco’s modified Eagles’s medium (DMEM high glucose) (Capricorn Scientific) at 37 °C in 5% CO2 supplemented with 10% fetal bovine serum (Capricorn Scientific). All cells were adherent in monolayers and, upon confluence, were washed with phosphate buffer saline (PBS) and harvested by digestion with Trypsin-EDTA 0.05% (v/v). The cells were suspended and transferred into new, sterile, culture flasks, for maintenance or seeded in sterile test microplates for different assays. All cells were manipulated under aseptic conditions in a flow chamber.
The cells were adherent in monolayers and, upon confluency, were harvested by digestion with trypsin. The cytotoxicity of the complexes against the tumour cells was assessed using the colorimetric assay MTT […], which evaluate the metabolic activity of viable cells. This assay measures the conversion of the yellow tetrazolium into purple formazan by an active mitochondrial dehydrogenase in living cells. For this purpose, cells (10-20 × 10^3 in 200 μL of medium) were seeded into 96-well plates and incubated in a 5% CO2 incubator at 37 °C. The cells were settled for 24 h followed by the addition of a dilution series of the complexes in medium (200 μL). The complexes were first solubilized in 100% DMSO, given a 10 mM stock solution, and then in medium within the concentration range of 0.1–100 µM. […] After 24 h of incubation, the treatment solutions were removed by aspiration, and MTT solution (200 μL, 0.5 mg·mL^-1 in PBS) was added to each well. After 3 h at 37 °C/5% CO2, the solution was removed, and the purple formazan crystals formed inside the cells were dissolved in DMSO (200 μL) by thorough shaking. […]

[2] = test system: normal human fibroblasts (HDF); assay: MTT cytotoxicity assay, normal human dermal fibroblasts; format: cell-based; conditions: for IC50: 24 h incubation, MTT, normal human fibroblasts; for Fold less cytotoxic for fibroblasts (HDF) than for MCF-7 cells: selectivity HDF vs MCF-7; for Fold less cytotoxic for fibroblasts (HDF) than for MDA-MB-231 cells: selectivity HDF vs MDA-MB-231
Experimental: as §1, §2

[3] = molecular target: human serum albumin (HSA) (Homo sapiens, UniProt P02768); assay: Binding to human serum albumin by steady-state and time-resolved Trp214 fluorescence; conditions: for Emission intensity of Trp214 relative to value in the absence of compound: 20 µM compound (1:4 HSA:compound), 24 h, λem 340 nm; for Type of quenching: HSA-Trp214 fluorescence; for Spectral shift of Trp214 emission: steady-state emission, 24 h incubation; for Effect on amplitude-weighted mean fluorescence lifetime of HSA-Trp214: time-resolved fluorescence, λem 350 nm
Experimental: (§3) The stock solutions of HSA were freshly prepared for each experiment by gently dissolving protein in PBS pH 7.4 (tablets from Fisher) for 1 hour to allow protein to completely hydrate. The concentration of the protein in the stock solutions was determined by spectrophotometry using the molar absorption coefficient at 280 nm ε280(HSA) = 36,850 M^−1·cm^−1 [38].
In each essay, all spectroscopic measurements were carried out on individually prepared samples to ensure the same preincubation time at (37.0 ± 0.1)°C, the same % of DMSO in the final samples, and the same exposure to excitation light and to avoid the need for dilution corrections. Moreover, for a direct titration protocol, a highly concentrated stock solution of the compounds in the buffer would be required, which would raise solubility issues. Dimethylsulfoxide (DMSO, from Fisher) was used to prepare concentrated stock solutions of each complex, followed by appropriate dilution to obtain the desired concentration. The DMSO content was kept at 2% (v/v) in PBS pH 7.4 in all samples. Dilutions were carried out immediately before sample preparation.
Fluorescence measurements were performed at 25.0 ± 0.1°C. The final protein concentration in the individually prepared samples (3.72 to 5 μM) was kept constant in each assay, and the complex concentration was varied to obtain desired HSA: Ru-complex molar ratios ranging from 1 : 0.25 to 1 : 10. A control sample containing the same amount of protein and final DMSO content and with no complex was also prepared for each experiment. Appropriate blank samples with no protein but with the same complex concentrations were prepared as well for background correction.
The steady-state fluorescence intensity was measured with excitation at 295 nm, and emission spectra were collected with bandwidths of 4 nm for both excitation and emission. For Stern–Volmer plots, the fluorescence intensity with emission at 340 nm was selected because it is near the maximum emission wavelength (so the sensitivity is close to maximum), but it is further to red in relation to the water Raman scattering peak. These values were corrected for the absorption and emission inner filter effects using the absorbance recorded for each sample at the excitation and emission wavelengths used for the steady-state quenching analysis. For time-resolved fluorescence measurements, the single-photon-counting technique was used with nanoLED N-280 (Horiba Jobin Yvon) as the pulsed excitation source (280 nm) and with emission collected at 350 nm (13 nm emission bandwidth), eliminating the contribution of the emission by tyrosine residues.
The experimental fluorescence intensity decays of HSA in buffer solution can be described by a sum of exponentials:(1) It=∑i=1npiexp−t/τi, where pi and τi are the pre-exponential factors and lifetime of component i, respectively. The amplitude or normalized pre-exponential of each lifetime component αi is pi/Σipi with Σiαi = 1. Fluorescence decays were analysed by an iterative deconvolution method using the TRFA Data Processor software (version 1.4; Minsk, Belarus), and the instrument response function was obtained using scattering by a colloidal suspension of silica (Ludox®, Sigma-Aldrich) diluted in water. Criteria for judging the quality of the fit were reduced χ^2 close to 1 and a random distribution of weighted residuals and residual autocorrelation.
To evaluate changes in the quantum yield by processes affecting the fluorescence lifetimes of HSA, the amplitude-weighted mean fluorescence lifetime ( τ¯ ) was calculated using the following equation:(2) τ¯=∑i=1nαiτi.
as §3, with “dissolving the” for “dissolving”, “allow the” for “allow”, “of” for “of the”, “M^−1 cm^−1.[8] […]” for “M^−1·cm^−1 [38].”

[4] = test system: MCF-7 breast cancer cells; assay: MTT cytotoxicity assay, MCF-7 cells; format: cell-based, human; conditions: 24 h incubation, average of at least three experiments (±SD)
Experimental: as §1
The cells were adherent in monolayers and, upon confluence, were harvested by digestion with trypsin. The cytotoxicity of the complexes against the tumour cells was assessed using the colorimetric assay MTT […], which evaluates the metabolic activity of viable cells. This assay measures the conversion of yellow tetrazolium into purple formazan by an active mitochondrial dehydrogenase in living cells. For this purpose, the cells (10–20 × 10^3 in 200 μL of the medium) were seeded into 96-well plates and incubated in a 5% CO2 incubator at 37°C. The cells were settled for 24 h followed by the addition of a dilution series of the complexes in a medium (200 μL). The complexes were first solubilized in 100% DMSO, given a 10 mM stock solution, and then in a medium within the concentration range of 0.1–100 µM. […] The cellular viability was evaluated by measuring the absorbance at 570 nm by using a microplate spectrophotometer. […]
The cells were adherent in monolayers and, upon confluency, were harvested by digestion with trypsin. The cytotoxicity of the complexes against the tumour cells was assessed using the colorimetric assay MTT […], which evaluate the metabolic activity of viable cells. […]

[5] = test system: MCF-7 breast cancer cells; set-up: method as in doi:10.1021/acsomega.8b02849, PMID 31241925; conditions: positive control; ref [44], [45]; cited from earlier work
[6] = test system: MDA-MB-231 breast cancer cells; set-up: method as in doi:10.1021/acsomega.8b02849, PMID 31241925; conditions: positive control; ref [44], [45]; cited from earlier work
[7] = test system: normal human fibroblasts (HDF); set-up: method as in doi:10.1021/acsomega.8b02849, PMID 31241925; conditions: positive control; ref [44], [45]; cited from earlier work

human serum albumin (HSA), sequence (P02768 25-609): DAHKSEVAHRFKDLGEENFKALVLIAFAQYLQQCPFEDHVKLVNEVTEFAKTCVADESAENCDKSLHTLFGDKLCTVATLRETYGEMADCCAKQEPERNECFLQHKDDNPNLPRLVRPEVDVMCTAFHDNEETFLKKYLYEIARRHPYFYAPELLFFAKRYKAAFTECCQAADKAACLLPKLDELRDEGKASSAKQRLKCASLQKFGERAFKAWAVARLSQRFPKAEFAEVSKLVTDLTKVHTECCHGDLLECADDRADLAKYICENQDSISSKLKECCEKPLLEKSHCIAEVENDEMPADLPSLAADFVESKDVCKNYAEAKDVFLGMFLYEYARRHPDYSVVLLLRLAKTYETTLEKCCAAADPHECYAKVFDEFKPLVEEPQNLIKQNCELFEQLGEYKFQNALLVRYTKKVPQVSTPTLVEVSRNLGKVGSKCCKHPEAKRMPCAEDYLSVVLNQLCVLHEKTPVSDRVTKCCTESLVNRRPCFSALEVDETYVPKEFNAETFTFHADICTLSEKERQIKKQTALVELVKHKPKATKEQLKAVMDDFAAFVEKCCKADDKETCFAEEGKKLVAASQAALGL

Row | Structure (SMILES) | IC50 [1] [nM] | IC50 [2] [nM] | Fold less cytotoxic for fibroblasts (HDF) than for MCF-7 cells [2] | Fold less cytotoxic for fibroblasts (HDF) than for MDA-MB-231 cells [2] [fold] | Emission intensity of Trp214 relative to value in the absence of compound [3] | Type of quenching [3] | Spectral shift of Trp214 emission [3] | Effect on amplitude-weighted mean fluorescence lifetime of HSA-Trp214 [3] | IC50 [4] [nM] | IC50 [5] [nM] | IC50 [6] [nM] | IC50 [7] [nM]
1 | CN1CN2C[NH+](C)C[P]([Ru+2]([P](c3ccccc3)(c3ccccc3)c3ccccc3)[P](c3ccccc3)(c3ccccc3)c3ccccc3)(C1)C2.O=S(=O)([O-])C(F)(F)F.O=S(=O)([O-])C(F)(F)F.c1cc[cH-]c1 [Compound 9, [RuCp(HdmoPTA)(PPh3)2](CF3SO3)2] | 860 ± 130 | 1230 ± 320 | 2-3 fold | 1.5 | approximately 60% | Static | do not induce any spectral shift | does not affect | 480 ± 70 |  |  | 
2 | CN1CN2CN(C)C[P]([Ru+2]([P](c3ccccc3)(c3ccccc3)c3ccccc3)[P](c3ccccc3)(c3ccccc3)c3ccccc3)(C1)C2.O=S(=O)([O-])C(F)(F)F.c1cc[cH-]c1 [Compound 10, [RuCp(dmoPTA)(PPh3)2](CF3SO3)] | 840 ± 90 | 1470 ± 400 | 2-3 fold | 1.5 | ~75% | Static | do not induce any spectral shift | does not affect | 400 ± 40 |  |  | 
3 | N.N.[Cl][Pt][Cl] [Cisplatin, cis-[PtCl2(NH3)2]] |  |  |  |  |  |  |  |  |  | 38000 ± 1400 | > 100000 | ~100000

Source: paper PMC10555500, “Evaluation of the Antiproliferative Properties of CpRu Complexes Containing N-Methylated Triazaphosphaadamantane Derivatives” (Bioinorganic Chemistry and Applications, 2023)
